Reference: PMC8632988, “Inhibition of SYK and cSrc kinases can protect bone and cartilage in preclinical models of osteoarthritis and rheumatoid arthritis” (Scientific Reports, 2021)

Assays:
Experiment in all cases: Kinase selectivity profile assay
Format in all cases: biochemical
ALK3/BMPR1A = biological target: T1, ALK3/BMPR1A (Homo sapiens, UniProt P36894); settings: 500 nM; relative to DMSO; read-out: Residual enzymatic activity
T1 construct: purchased Reaction Biology Corporation
How it was run: (§1)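 Radiometric kinase assay run by a standard protocol. Unbound phosphate was removed by washing filters in phosphoric acid, and product radioactivity gave percent remaining kinase activity versus DMSO vehicle reactions. Run in duplicate.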

ARAF = biological target: T2, ARAF (Homo sapiens, UniProt P10398); settings: 500 nM; relative to DMSO; read-out: Residual enzymatic activity
T2 construct: purchased Reaction Biology Corporation
How it was run: as §1

CAMK2b = biological target: T3, CAMK2b (Homo sapiens, UniProt Q13554); settings: 500 nM; relative to DMSO; read-out: Residual enzymatic activity
T3 construct: purchased Reaction Biology Corporation
How it was run: as §1

CAMK2g = biological target: T4, CAMK2g (Homo sapiens, UniProt Q13555); settings: 500 nM; relative to DMSO; read-out: Residual enzymatic activity
T4 construct: purchased Reaction Biology Corporation
How it was run: as §1

CDC7/DBF4 = biological target: T5, CDC7/DBF4 (Homo sapiens, UniProt O00311); settings: 500 nM; relative to DMSO; read-out: Residual enzymatic activity
T5 construct: purchased Reaction Biology Corporation
How it was run: as §1

CDK6/cyclin D3 = biological target: T6, CDK6/cyclin D3 (Homo sapiens, UniProt Q00534); settings: 500 nM; relative to DMSO; read-out: Residual enzymatic activity
T6 construct: purchased Reaction Biology Corporation
How it was run: as §1

CHK2 = biological target: T7, CHK2 (Homo sapiens, UniProt O96017); settings: 500 nM; relative to DMSO; read-out: Residual enzymatic activity
T7 construct: purchased Reaction Biology Corporation
How it was run: as §1

CK1g2 = biological target: T8, CK1g2 (Homo sapiens, UniProt P78368); settings: 500 nM; relative to DMSO; read-out: Residual enzymatic activity
T8 construct: purchased Reaction Biology Corporation
How it was run: as §1

CK1g3 = biological target: T9, CK1g3 (Homo sapiens, UniProt Q9Y6M4); settings: 500 nM; relative to DMSO; read-out: Residual enzymatic activity
T9 construct: purchased Reaction Biology Corporation
How it was run: as §1

COT1/MAP3K8 = biological target: T10, COT1/MAP3K8 (Homo sapiens, UniProt P41279); settings: 500 nM; relative to DMSO; read-out: Residual enzymatic activity
T10 construct: purchased Reaction Biology Corporation
How it was run: as §1

DAPK2 = biological target: T11, DAPK2 (Homo sapiens, UniProt Q9UIK4); settings: 500 nM; relative to DMSO; read-out: Residual enzymatic activity
T11 construct: purchased Reaction Biology Corporation
How it was run: as §1

DCAMKL2 = biological target: T12, DCAMKL2 (Homo sapiens, UniProt Q8N568); settings: 500 nM; relative to DMSO; read-out: Residual enzymatic activity
T12 construct: purchased Reaction Biology Corporation
How it was run: as §1

EPHA5 = biological target: T13, EPHA5 (Homo sapiens, UniProt P54756); settings: 500 nM; relative to DMSO
T13 construct: purchased Reaction Biology Corporation
How it was run: as §1

ERK2/MAPK1 = biological target: T14, ERK2/MAPK1 (Homo sapiens, UniProt P28482); settings: 500 nM; relative to DMSO; read-out: Residual enzymatic activity
T14 construct: purchased Reaction Biology Corporation
How it was run: as §1

FGFR1 = biological target: T15, FGFR1 (Homo sapiens, UniProt P11362); settings: 500 nM; relative to DMSO
T15 construct: purchased Reaction Biology Corporation
How it was run: as §1

FGR = biological target: T16, FGR (Homo sapiens, UniProt P09769)
T16 construct: purchased Reaction Biology Corporation (assay service)
How it was run: as §1

FMS = biological target: T17, FMS (Homo sapiens, UniProt P07333); settings: 500 nM; relative to DMSO; read-out: Residual enzymatic activity
T17 construct: purchased Reaction Biology Corporation
How it was run: as §1

GRK3 = biological target: T18, GRK3 (Homo sapiens, UniProt P35626); settings: 500 nM; relative to DMSO; read-out: Residual enzymatic activity
T18 construct: purchased Reaction Biology Corporation
How it was run: as §1

IGF1R = biological target: T19, IGF1R (Homo sapiens, UniProt P08069); settings: 500 nM; relative to DMSO; read-out: Residual enzymatic activity
T19 construct: purchased Reaction Biology Corporation
How it was run: as §1

JNK3 = biological target: T20, JNK3 (Homo sapiens, UniProt P53779); settings: 500 nM; relative to DMSO; read-out: Residual enzymatic activity
T20 construct: purchased Reaction Biology Corporation
How it was run: as §1

LCK2/ICK = biological target: T21, LCK2/ICK (Homo sapiens, UniProt Q9UPZ9); settings: 500 nM; relative to DMSO; read-out: Residual enzymatic activity
T21 construct: purchased Reaction Biology Corporation
How it was run: as §1

MAPKAPK5/PRAK = biological target: T22, MAPKAPK5/PRAK (Homo sapiens, UniProt Q8IW41); settings: 500 nM; relative to DMSO; read-out: Residual enzymatic activity
T22 construct: purchased Reaction Biology Corporation
How it was run: as §1

MEK1 = biological target: T23, MEK1 (Homo sapiens, UniProt Q02750); settings: 500 nM, relative to DMSO
T23 construct: purchased Reaction Biology Corporation
How it was run: as §1

MEKK3 = biological target: T24, MEKK3 (Homo sapiens, UniProt Q99759); settings: 500 nM; relative to DMSO; read-out: Residual enzymatic activity
T24 construct: purchased Reaction Biology Corporation
How it was run: as §1

MKK4 = biological target: T25, MKK4 (Homo sapiens, UniProt P45985); settings: 500 nM; relative to DMSO; read-out: Residual enzymatic activity
T25 construct: purchased Reaction Biology Corporation
How it was run: as §1

MRCKa/CDC42BPA = biological target: T26, MRCKa/CDC42BPA (Homo sapiens, UniProt Q5VT25); settings: 500 nM; relative to DMSO; read-out: Residual enzymatic activity
T26 construct: purchased Reaction Biology Corporation
How it was run: as §1

MST3/STK24 = biological target: T27, MST3/STK24 (Homo sapiens, UniProt Q9Y6E0); settings: 500 nM; relative to DMSO; read-out: Residual enzymatic activity
T27 construct: purchased Reaction Biology Corporation
How it was run: as §1

NEK5 = biological target: T28, NEK5 (Homo sapiens, UniProt Q6P3R8); settings: 500 nM; relative to DMSO; read-out: Residual enzymatic activity
T28 construct: purchased Reaction Biology Corporation
How it was run: as §1

P38g = biological target: T29, P38g (Homo sapiens, UniProt P53778); settings: 500 nM; relative to DMSO; read-out: Residual enzymatic activity
T29 construct: purchased Reaction Biology Corporation
How it was run: as §1

PAK4 = biological target: T30, PAK4 (Homo sapiens, UniProt O96013); settings: 500 nM; relative to DMSO; read-out: Residual enzymatic activity
T30 construct: purchased Reaction Biology Corporation
How it was run: as §1

PKA = biological target: T31, PKA (Homo sapiens, UniProt P17612); settings: 500 nM, relative to DMSO
T31 construct: purchased Reaction Biology Corporation
How it was run: as §1

PKCeta = biological target: T32, PKCeta (Homo sapiens, UniProt P24723); settings: 500 nM; relative to DMSO; read-out: Residual enzymatic activity
T32 construct: purchased Reaction Biology Corporation
How it was run: as §1

SGK3/SGKL = biological target: T33, SGK3/SGKL (Homo sapiens, UniProt Q96BR1); settings: 500 nM; relative to DMSO; read-out: Residual enzymatic activity
T33 construct: purchased Reaction Biology Corporation
How it was run: as §1

TAOK3/JIK = biological target: T34, TAOK3/JIK (Homo sapiens, UniProt Q9H2K8); settings: 500 nM; relative to DMSO; read-out: Residual enzymatic activity
T34 construct: purchased Reaction Biology Corporation
How it was run: as §1

TBK1 = biological target: T35, TBK1 (Homo sapiens, UniProt Q9UHD2); settings: 500 nM; relative to DMSO; read-out: Residual enzymatic activity
T35 construct: purchased Reaction Biology Corporation
How it was run: as §1

TIE2/TEK = biological target: T36, TIE2/TEK (Homo sapiens, UniProt Q02763); settings: 500 nM; relative to DMSO
T36 construct: purchased Reaction Biology Corporation
How it was run: as §1

TYK1/LTK = biological target: T37, TYK1/LTK (Homo sapiens, UniProt P29376); settings: 500 nM; relative to DMSO; read-out: Residual enzymatic activity
T37 construct: purchased Reaction Biology Corporation
How it was run: as §1

TYRO3/SKY = biological target: T38, TYRO3/SKY (Homo sapiens, UniProt Q06418); settings: 500 nM; relative to DMSO; read-out: Residual enzymatic activity
T38 construct: purchased Reaction Biology Corporation
How it was run: as §1

YES/YES1 = biological target: T39, YES/YES1 (Homo sapiens, UniProt P07947)
T39 construct: purchased Reaction Biology Corporation (Malvern, PA, USA)
How it was run: as §1

[1] = 500 nM, relative to DMSO, read-out: Residual enzymatic activity
[2] = 10-dose mode, threefold serial dilution from 10 μM
[3] = read-out: Residual enzymatic activity

T39 sequence (P07947 whole entry): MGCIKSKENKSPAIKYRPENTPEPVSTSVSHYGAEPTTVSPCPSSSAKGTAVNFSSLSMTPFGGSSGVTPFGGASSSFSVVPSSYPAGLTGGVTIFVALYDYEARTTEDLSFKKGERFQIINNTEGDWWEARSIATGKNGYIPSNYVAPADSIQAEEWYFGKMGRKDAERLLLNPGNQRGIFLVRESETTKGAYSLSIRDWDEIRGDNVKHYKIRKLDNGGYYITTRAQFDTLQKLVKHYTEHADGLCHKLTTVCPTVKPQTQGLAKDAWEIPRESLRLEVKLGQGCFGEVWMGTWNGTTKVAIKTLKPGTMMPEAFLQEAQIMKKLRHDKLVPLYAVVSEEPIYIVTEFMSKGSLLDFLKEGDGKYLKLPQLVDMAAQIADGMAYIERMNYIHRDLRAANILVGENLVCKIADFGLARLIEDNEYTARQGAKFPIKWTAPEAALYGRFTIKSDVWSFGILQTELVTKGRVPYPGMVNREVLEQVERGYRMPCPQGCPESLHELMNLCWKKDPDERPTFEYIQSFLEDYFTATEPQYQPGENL
T23 sequence (Q02750 whole entry): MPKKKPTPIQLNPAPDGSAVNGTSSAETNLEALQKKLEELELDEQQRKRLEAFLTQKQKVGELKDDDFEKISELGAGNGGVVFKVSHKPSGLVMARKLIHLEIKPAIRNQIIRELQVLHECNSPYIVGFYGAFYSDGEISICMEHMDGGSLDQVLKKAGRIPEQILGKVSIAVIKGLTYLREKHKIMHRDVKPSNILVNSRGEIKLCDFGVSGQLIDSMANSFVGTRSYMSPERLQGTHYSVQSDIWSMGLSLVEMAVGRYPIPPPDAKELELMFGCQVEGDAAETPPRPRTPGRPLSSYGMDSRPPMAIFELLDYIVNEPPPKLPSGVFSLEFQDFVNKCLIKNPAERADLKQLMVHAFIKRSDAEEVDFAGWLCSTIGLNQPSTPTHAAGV
T16 sequence (P09769 whole entry): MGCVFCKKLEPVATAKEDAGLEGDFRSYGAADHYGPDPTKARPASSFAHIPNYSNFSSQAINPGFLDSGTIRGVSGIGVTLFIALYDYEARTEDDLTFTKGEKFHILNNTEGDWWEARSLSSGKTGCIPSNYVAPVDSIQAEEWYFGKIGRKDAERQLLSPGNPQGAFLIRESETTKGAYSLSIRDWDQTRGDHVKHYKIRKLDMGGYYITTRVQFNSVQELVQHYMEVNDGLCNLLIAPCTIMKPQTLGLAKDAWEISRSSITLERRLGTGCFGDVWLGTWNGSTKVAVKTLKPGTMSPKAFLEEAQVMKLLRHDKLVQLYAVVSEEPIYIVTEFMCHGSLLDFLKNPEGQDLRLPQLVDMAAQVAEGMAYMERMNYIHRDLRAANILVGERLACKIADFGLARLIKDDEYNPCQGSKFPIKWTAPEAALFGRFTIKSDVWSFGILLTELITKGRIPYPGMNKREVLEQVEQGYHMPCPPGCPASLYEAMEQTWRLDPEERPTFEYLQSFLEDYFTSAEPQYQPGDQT
T33 sequence (Q96BR1 whole entry): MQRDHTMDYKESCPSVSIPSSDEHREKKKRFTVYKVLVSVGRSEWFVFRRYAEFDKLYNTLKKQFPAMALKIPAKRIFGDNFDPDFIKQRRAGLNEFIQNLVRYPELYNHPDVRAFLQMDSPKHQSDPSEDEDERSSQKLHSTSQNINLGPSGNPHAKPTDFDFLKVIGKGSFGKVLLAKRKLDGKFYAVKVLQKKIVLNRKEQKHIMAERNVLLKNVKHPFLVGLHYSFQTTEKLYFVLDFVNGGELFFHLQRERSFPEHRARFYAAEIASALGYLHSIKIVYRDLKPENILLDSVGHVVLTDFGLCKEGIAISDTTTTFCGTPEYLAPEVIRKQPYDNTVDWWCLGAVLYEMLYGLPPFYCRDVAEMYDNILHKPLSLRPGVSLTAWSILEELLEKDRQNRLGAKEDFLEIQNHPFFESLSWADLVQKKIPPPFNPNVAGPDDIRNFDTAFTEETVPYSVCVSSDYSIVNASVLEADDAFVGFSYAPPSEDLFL
T7 sequence (O96017 whole entry): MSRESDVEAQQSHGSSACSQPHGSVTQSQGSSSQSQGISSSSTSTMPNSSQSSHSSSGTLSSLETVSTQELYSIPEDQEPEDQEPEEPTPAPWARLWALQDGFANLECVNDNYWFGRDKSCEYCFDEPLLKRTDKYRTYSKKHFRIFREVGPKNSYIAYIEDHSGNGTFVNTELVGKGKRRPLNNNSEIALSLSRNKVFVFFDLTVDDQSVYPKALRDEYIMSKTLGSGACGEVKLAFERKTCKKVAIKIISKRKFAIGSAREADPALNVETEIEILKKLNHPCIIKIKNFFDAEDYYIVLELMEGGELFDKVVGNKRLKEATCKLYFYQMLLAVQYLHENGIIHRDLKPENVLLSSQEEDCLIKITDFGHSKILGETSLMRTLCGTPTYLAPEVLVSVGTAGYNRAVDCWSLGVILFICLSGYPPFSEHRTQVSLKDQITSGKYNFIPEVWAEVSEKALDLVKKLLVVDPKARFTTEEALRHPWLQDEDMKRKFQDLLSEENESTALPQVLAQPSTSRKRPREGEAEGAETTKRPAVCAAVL
T2 sequence (P10398 whole entry): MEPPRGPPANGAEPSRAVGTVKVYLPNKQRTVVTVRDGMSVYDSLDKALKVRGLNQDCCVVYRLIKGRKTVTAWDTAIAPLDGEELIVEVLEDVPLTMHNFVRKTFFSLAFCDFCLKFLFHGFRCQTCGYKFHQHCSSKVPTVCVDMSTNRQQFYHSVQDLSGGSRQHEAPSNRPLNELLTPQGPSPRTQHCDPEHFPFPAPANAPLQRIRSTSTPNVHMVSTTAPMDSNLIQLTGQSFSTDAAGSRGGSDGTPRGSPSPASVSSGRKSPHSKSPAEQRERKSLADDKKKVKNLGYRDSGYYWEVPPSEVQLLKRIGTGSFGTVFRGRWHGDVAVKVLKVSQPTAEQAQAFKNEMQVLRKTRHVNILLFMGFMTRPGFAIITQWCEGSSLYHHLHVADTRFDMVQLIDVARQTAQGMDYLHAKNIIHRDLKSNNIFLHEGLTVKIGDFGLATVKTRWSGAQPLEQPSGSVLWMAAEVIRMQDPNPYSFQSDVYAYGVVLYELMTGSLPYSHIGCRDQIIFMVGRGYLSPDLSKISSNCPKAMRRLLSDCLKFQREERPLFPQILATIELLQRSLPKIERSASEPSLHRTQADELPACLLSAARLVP
T9 sequence (Q9Y6M4 whole entry): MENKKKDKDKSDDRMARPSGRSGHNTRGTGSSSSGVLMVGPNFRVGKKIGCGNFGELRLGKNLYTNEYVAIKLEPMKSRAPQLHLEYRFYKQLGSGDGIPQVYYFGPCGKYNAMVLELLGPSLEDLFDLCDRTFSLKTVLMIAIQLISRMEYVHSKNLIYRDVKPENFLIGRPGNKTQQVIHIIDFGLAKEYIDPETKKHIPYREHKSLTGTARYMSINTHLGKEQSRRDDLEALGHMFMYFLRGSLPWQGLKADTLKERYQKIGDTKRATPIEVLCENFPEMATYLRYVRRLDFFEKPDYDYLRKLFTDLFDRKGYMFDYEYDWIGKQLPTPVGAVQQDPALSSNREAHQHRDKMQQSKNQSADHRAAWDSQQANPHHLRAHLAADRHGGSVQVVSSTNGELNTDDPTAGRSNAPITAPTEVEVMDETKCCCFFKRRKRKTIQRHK
T28 sequence (Q6P3R8 whole entry): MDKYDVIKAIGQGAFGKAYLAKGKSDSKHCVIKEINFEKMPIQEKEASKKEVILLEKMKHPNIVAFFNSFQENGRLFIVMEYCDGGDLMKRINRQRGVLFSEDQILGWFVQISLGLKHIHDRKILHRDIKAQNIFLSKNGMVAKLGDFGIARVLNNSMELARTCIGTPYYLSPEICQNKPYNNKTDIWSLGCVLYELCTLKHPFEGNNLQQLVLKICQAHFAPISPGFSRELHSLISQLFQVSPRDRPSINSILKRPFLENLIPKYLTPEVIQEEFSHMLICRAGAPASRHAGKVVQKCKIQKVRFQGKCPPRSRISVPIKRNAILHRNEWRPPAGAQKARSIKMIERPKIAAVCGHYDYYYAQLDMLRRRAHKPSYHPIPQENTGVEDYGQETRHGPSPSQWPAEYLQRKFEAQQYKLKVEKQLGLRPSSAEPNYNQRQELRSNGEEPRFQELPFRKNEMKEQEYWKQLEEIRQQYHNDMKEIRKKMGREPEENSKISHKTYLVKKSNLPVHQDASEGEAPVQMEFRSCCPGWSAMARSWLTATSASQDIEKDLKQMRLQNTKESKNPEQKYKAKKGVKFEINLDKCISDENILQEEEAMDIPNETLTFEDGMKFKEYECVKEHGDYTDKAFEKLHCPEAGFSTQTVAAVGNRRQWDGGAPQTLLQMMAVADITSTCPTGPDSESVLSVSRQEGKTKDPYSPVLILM
T20 sequence (P53779 whole entry): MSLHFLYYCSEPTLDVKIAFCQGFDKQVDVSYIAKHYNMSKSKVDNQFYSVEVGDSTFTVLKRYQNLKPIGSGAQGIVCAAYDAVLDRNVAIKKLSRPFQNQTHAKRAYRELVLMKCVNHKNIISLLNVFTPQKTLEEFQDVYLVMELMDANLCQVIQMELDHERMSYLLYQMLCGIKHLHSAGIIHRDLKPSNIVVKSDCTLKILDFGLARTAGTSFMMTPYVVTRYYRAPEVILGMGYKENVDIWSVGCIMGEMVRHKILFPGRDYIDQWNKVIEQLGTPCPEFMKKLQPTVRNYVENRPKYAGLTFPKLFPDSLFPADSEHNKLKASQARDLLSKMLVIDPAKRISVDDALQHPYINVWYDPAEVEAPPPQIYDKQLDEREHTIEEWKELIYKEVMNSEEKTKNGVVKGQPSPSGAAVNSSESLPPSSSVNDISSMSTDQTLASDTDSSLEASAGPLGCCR

## COc1cc(Nc2ncnc(Nc3cc4c(cn3)NC(=O)C(C)(C)O4)n2)cc(OC)c1OC [MT-SYK-03]
ALK3/BMPR1A
  remaining activity at 0.5 µM: 130%
ARAF
  remaining activity at 0.5 µM: 59.7%
CAMK2b
  remaining activity at 0.5 µM: 97.7%
CAMK2g
  remaining activity at 0.5 µM: 100%
CDC7/DBF4
  remaining activity at 0.5 µM: 102%
CDK6/cyclin D3
  remaining activity at 0.5 µM: 101%
CHK2
  remaining activity at 0.5 µM: 95%
CK1g2
  remaining activity at 0.5 µM: 97.2%
CK1g3
  remaining activity at 0.5 µM: 72.2%
COT1/MAP3K8
  remaining activity at 0.5 µM: 90.4%
DAPK2
  remaining activity at 0.5 µM: 98.4%
DCAMKL2
  remaining activity at 0.5 µM: 99.1%
EPHA5
  Residual enzymatic activity: 76.4%
ERK2/MAPK1
  remaining activity at 0.5 µM: 90.6%
FGFR1
  Residual enzymatic activity: 77.5%
FGR; [1]
  remaining activity at 0.5 µM: 22.6%
FGR; [2]
  IC50: 9 nM
FMS
  remaining activity at 0.5 µM: 51.1%
GRK3
  remaining activity at 0.5 µM: 103%
IGF1R
  remaining activity at 0.5 µM: 90%
JNK3
  remaining activity at 0.5 µM: 96.4%
LCK2/ICK
  remaining activity at 0.5 µM: 110%
MAPKAPK5/PRAK
  remaining activity at 0.5 µM: 92.3%
MEK1
  Residual enzymatic activity: did not inhibit any
MEK1; [3]
  remaining activity at 0.5 µM: 107%
MEKK3
  remaining activity at 0.5 µM: 116%
MKK4
  remaining activity at 0.5 µM: 99.8%
MRCKa/CDC42BPA
  remaining activity at 0.5 µM: 102%
MST3/STK24
  remaining activity at 0.5 µM: 108%
NEK5
  remaining activity at 0.5 µM: 63.6%
P38g
  remaining activity at 0.5 µM: 101%
PAK4
  remaining activity at 0.5 µM: 92.1%
PKA
  Residual enzymatic activity: did not inhibit any
PKA; [3]
  remaining activity at 0.5 µM: 96.4%
PKCeta
  remaining activity at 0.5 µM: 109%
SGK3/SGKL
  remaining activity at 0.5 µM: 103%
TAOK3/JIK
  remaining activity at 0.5 µM: 108%
TBK1
  remaining activity at 0.5 µM: 66.8%
TIE2/TEK
  Residual enzymatic activity: 92.9%
TYK1/LTK
  remaining activity at 0.5 µM: 92%
TYRO3/SKY
  remaining activity at 0.5 µM: 104%
YES/YES1; [1]
  remaining activity at 0.5 µM: 11.6%
YES/YES1; [2]
  IC50: 3.5 nM
YES/YES1; read-out: Inhibition at 500 nM
  inhibition at 0.5 µM: > 90%
